Source: patent US20210106687A1, “BOLAAMPHIPHILIC COMPOUNDS, COMPOSITIONS AND USES THEREOF” (Lauren Sciences LLC, priority 2012, published 2021)

What was measured:
b.End3 cells [1] = test: Internalization of CF by the cells in vitro, FACS; assay type: cell-based, mouse; conditions: equivalent to 0.5 μg/mL CF
Procedure: b.End3 immortalized mouse brain capillary endothelium cells were kindly provided by Prof Philip Lazarovici (Institute for Drug Research, School of Pharmacy, The Hebrew University of Jerusalem, Israel). The b.End3 cells were cultured in DMEM medium supplemented with 10% fetal bovine serum, 2 mM L-Glutamine, 100 IU/mL penicillin and 100 μg/mL streptomycin (Biological Industries Ltd., Beit Haemek, Israel). The cells were maintained in an incubator at 37° C. in a humidified atmosphere with 5% CO2.
All the images were acquired using the same imaging settings and were not corrected or modified.
The inventors investigated whether this trend is still apparent in the interaction of magnetic and non-magnetic bolavesicles with brain capillary endothelial cells. To this end, the inventors used murine b.End3 cells, which are one of the most extensively used cell lines for brain uptake and permeability studies^25. […] Previously, the inventors extensively used ^b.End3 cells to analyze uptake and intracellular fate of bolavesicles encapsulating model proteins and marker compounds^8.

b.End3 cells [2] = test: Internalization of CF by the cells in vitro, confocal fluorescence microscopy; assay type: cell-based, mouse; conditions: 5 h at 37° C.; FIG. 4
Procedure: b.End3 cells were grown on 24-well plates or on coverslips (for FACS and fluorescence microscopy analysis, respectively). The medium was replaced with culture medium without serum and CF solution, or tested bolavesicles (equivalent to 0.5 μg/mL CF), or equivalent volume of the medium were added to the cells and incubated for 5 hr at 4° C. or at 37° C. At the end of the incubation, cells were extensively washed with complete medium and with PBS, and were either detached from the plates using trypsin-EDTA solution (Biological Industries Ltd., Beit Haemek, Israel) and analyzed by FACS (FACSCalibur Flow Cytometer, BD Biosciences, USA), or fixed with 2.5% formaldehyde in PBS, washed twice with PBS, mounted on slides using Mowiol-based mounting solution and analyzed using a FV1000-IX81 confocal microscope (Olympus, Tokyo, Japan) equipped with 60× objective. All the images were acquired using the same imaging settings and were not corrected or modified.

carboxyfluorescein [CF]
Internalization by b.End3 cells (FACS) (b.End3 cells [1]; 5 hr at 4° C.): not able to internalize | Internalization by b.End3 cells (FACS) (b.End3 cells [1]; 5 hr at 37° C.): not able to internalize | Endocytosis of CF by b.End3 cells (confocal microscopy) (b.End3 cells [2]): endocytosed by the bEnd.3 cells only when encapsulated within the bolavesicles
